This passage reports Ki results from patent publication US7781436B2 (Hoffmann-La Roche Inc., priority 2005, dated 2010).

Usually Ki stands for a dissociation constant, usually derived from enzyme kinetics or from competition with a known ligand.

T1 sequence (P37288 whole entry): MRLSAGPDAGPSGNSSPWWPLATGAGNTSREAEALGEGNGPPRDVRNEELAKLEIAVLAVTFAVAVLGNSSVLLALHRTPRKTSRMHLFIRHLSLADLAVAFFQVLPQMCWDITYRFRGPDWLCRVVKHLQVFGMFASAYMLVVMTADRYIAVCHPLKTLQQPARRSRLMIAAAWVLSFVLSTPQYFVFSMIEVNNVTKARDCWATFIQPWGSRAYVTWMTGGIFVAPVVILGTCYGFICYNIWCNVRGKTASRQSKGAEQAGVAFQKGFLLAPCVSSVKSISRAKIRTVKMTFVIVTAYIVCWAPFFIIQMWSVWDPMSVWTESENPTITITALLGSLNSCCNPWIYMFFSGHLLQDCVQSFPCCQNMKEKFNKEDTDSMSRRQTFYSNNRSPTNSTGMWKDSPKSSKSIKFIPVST

One experiment has as its target T1, human V1a receptor (Homo sapiens, UniProt P37288).
T1 construct: expressed in transfected cells; host or cells: HEK293 cells, transiently transfected; membranes prepared
Nature of the experiment: human V1a receptor binding (3H-Vasopressin SPA, membranes of transfected HEK293 cells).
Settings: not given
As for the experimental part: The human V1a receptor was cloned by RT-PCR from total human liver RNA. The coding sequence was subcloned in an expression vector after sequencing to confirm the identity of the amplified sequence. […] Cell membranes were prepared from HEK293 cells transiently transfected with the expression vector and grown in 20 liter fermenters with the following protocol.
50 g of cells are resuspended in 30 ml freshly prepared ice cold Lysis buffer (50 mM HEPES, 1 mM EDTA, 10 mM MgCl2 adjusted to pH=7.4+ complete cocktail of protease inhibitor (Roche Diagnostics)). Homogenized with Polytron for 1 min and sonicated on ice for 2×2 minutes at 80% intensity (Vibracell sonicator). The preparation is centrifuged 20 min at 500 g at 4° C., the pellet is discarded and the supernatant centrifuged 1 hour at 43,000 g at 4° C. (19'000 rpm). The pellet is resuspended in 12.5 ml Lysis buffer+12.5 ml Sucrose 20% and homogenized using a Polytron for 1-2 min. The protein concentration is determined by the Bradford method, and aliquots are stored at −80° C. until use. For binding studies 60 mg Yttrium silicate SPA beads (Amersham) are mixed with an aliquot of membrane in binding buffer (50 mM Tris, 120 mM NaCl, 5 mM KCl, 2 mM CaCl2, 10 mM MgCl2) for 15 minutes with mixing. 50 ul of bead/membrane mixture is then added to each well of a 96 well plate, followed by 50 ul of 4 nM 3H-Vasopressin (American Radiolabeled Chemicals). For total binding measurement 100 ul of binding buffer are added to the respective wells, for non-specific binding 100 ul of […] cold vasopressin and for compound testing 100 ul of a serial dilution of each compound in 2% DMSO. The plate is incubated 1 h at room temperature, centrifuged 1 min at 1000 g and counted on a Packard Top-Count. Non-specific binding counts are subtracted from each well, and data is normalized to the maximum specific binding set at 100%. To calculate an IC 50 the curve is fitted using a non-linear regression model (XLfit) and the Ki is calculated using the Cheng-Prussoff equation.
In turn, `COc1ccccc1C1=CCN(C(=O)c2c(C)n(Cc3ccccc3)c3ccccc23)CC1` [Example 3] showed a Ki of 14 nM.

In turn, `Cc1c(C(=O)N2CCC(c3ccccc3)CC2)c2ccccc2n1Cc1ccccc1` [Example 24] returned a Ki of 10 nM.

For `COc1cccc(OC)c1C1CCN(C(=O)c2cn(Cc3ccccn3)c3cc(Cl)ccc23)CC1` [Example 47, (6-Chloro-1-pyridin-2-ylmethyl-1H-indol-3-yl)-[4-(2,6-dimethoxy-phenyl)-piperidin-1-yl]-methanone], the Ki amounted to 4 nM.

Take `COc1cccc(OC)c1C1CCN(C(=O)c2cn(Cc3cnccn3)c3cc(Cl)ccc23)CC1` [Example 50]: the Ki turned out to be 4 nM.

Compound `COc1ccccc1C1CCN(C(=O)c2cn(Cc3cc(F)cc(F)c3)c3cc(Cl)ccc23)CC1` [Example 56, [6-Chloro-1-(3,5-difluoro-benzyl)-1H-indol-3-yl]-[4-(2-methoxy-phenyl)-piperidin-1-yl]-methanone] showed a Ki of 2 nM.

`COc1ccccc1C1(C#N)CCN(C(=O)c2cn(CC(=O)N(C)C)c3cc(Cl)ccc23)CC1` [Example 60, 2-{6-Chloro-3-[4-cyano-4-(2-methoxy-phenyl)-piperidine-1-carbonyl]-indol-1-yl}-N,N-dimethyl-acetamide] displayed an inhibitory constant (Ki) of 8 nM.

`CN(C)C(=O)Cn1cc(C(=O)N2CCC(C#N)(c3ccccc3F)CC2)c2ccc(Cl)cc21` [Example 61, 2-{6-Chloro-3-[4-cyano-4-(2-fluoro-phenyl)-piperidine-1-carbonyl]-indol-1-yl}-N,N-dimethyl-acetamide] registered a Ki of 13 nM.

Take `CN1CCN(C(=O)Cn2cc(C(=O)N3CCC(c4cccc5c4OCC5)CC3)c3ccc(Cl)cc32)CC1` [Example 71, 2-{6-Chloro-3-[4-(2,3-dihydro-benzofuran-7-yl)-piperidine-1-carbonyl]-indol-1-yl}-1-(4-methyl-piperazin-1-yl)-ethanone]: the Ki is 5 nM.

Regarding `COc1cccc(OC)c1C1CCN(C(=O)c2cn(CC(N)=O)c3cc(Cl)ccc23)CC1` [Example 81, 2-{6-Chloro-3-[4-(2,6-dimethoxy-phenyl)-piperidine-1-carbonyl]-indol-1-yl}-acetamide], the inhibition constant (Ki) worked out at 13 nM.

For `CN(C)CCn1cc(C(=O)N2CCC(c3cccc4c3OCC4)CC2)c2ccc(Cl)cc21` [Example 87, [6-Chloro-1-(2-dimethylamino-ethyl)-1H-indol-3-yl]-[4-(2,3-dihydro-benzofuran-7-yl)-piperidin-1-yl]-methanone], the Ki was 4 nM.

The experiment is the same for the next values; noted with them: displacement of 4 nM 3H-Vasopressin, HEK293 cell membranes, Ki by Cheng-Prussoff from IC50; read-out: Ki.
`COc1cccc(OC)c1C1CCN(C(=O)c2c[nH]c3cc(Cl)ccc23)CC1` [Example 40, (6-Chloro-1H-indol-3-yl)-[4-(2,6-dimethoxy-phenyl)-piperidin-1-yl]-methanone]: the Ki was 8 nM.

On to `COc1cccc(OC)c1C1CCN(C(=O)c2cn(CC(=O)N(C)C)c3cc(Cl)ccc23)CC1` [Example 43, 2-{6-Chloro-3-[4-(2,6-dimethoxy-phenyl)-piperidine-1-carbonyl]-indol-1-yl}-N,N-dimethyl-acetamide], for which the Ki was 2 nM.

In the case of `COc1cccc(OC)c1C1CCN(C(=O)c2cn(CC(=O)c3ccccn3)c3cc(Cl)ccc23)CC1` [Example 44, 2-{6-Chloro-3-[4-(2,6-dimethoxy-phenyl)-piperidine-1-carbonyl]-indol-1-yl}-1-pyridin-2-yl-ethanone], the Ki was found to be 3 nM.

Take `COc1cccc(OC)c1C1CCN(C(=O)c2cn(Cc3ccncc3)c3cc(Cl)ccc23)CC1` [Example 45, (6-Chloro-1-pyridin-4-ylmethyl-1H-indol-3-yl)-[4-(2,6-dimethoxy-phenyl)-piperidin-1-yl]-methanone]: the Ki was 7 nM.

Consider `COc1cccc(OC)c1C1CCN(C(=O)c2cn(Cc3cccnc3)c3cc(Cl)ccc23)CC1` [Example 46, (6-Chloro-1-pyridin-3-ylmethyl-1H-indol-3-yl)-[4-(2,6-dimethoxy-phenyl)-piperidin-1-yl]-methanone], for which the Ki was determined as 7 nM.

`COc1cccc(OC)c1C1CCN(C(=O)c2cn(CC(=O)OC(C)(C)C)c3cc(Cl)ccc23)CC1` [Example 49, {6-Chloro-3-[4-(2,6-dimethoxy-phenyl)-piperidine-1-carbonyl]-indol-1-yl}-acetic acid tert-butyl ester]: the Ki was determined as 3 nM.

Consider `COc1cccc(OC)c1C1CCN(C(=O)c2cn(CCN(C)C)c3cc(Cl)ccc23)CC1` [Example 52, [6-Chloro-1-(2-dimethylamino-ethyl)-1H-indol-3-yl]-[4-(2,6-dimethoxy-phenyl)-piperidin-1-yl]-methanone], for which the Ki worked out at 4 nM.

Turning to `COc1cccc(OC)c1C1CCN(C(=O)c2cn(CC(=O)N3CCN(C)CC3)c3cc(Cl)ccc23)CC1` [Example 55, 2-{6-Chloro-3-[4-(2,6-dimethoxy-phenyl)-piperidine-1-carbonyl]-indol-1-yl}-1-(4-methyl-piperazin-1-yl)-ethanone], the Ki turned out to be 2 nM.

In the case of `COc1ccccc1C1CCN(C(=O)c2cn(CC(=O)N(C)C)c3cc(Cl)ccc23)CC1` [Example 57, 2-{6-Chloro-3-[4-(2-methoxy-phenyl)-piperidine-1-carbonyl]-indol-1-yl}-N,N-dimethyl-acetamide], the Ki came out at 2 nM.

For the compound `COc1ccccc1C1CCN(C(=O)c2cn(CC(=O)N3CCN(C)CC3)c3cc(Cl)ccc23)CC1` [Example 58, 2-{6-Chloro-3-[4-(2-methoxy-phenyl)-piperidine-1-carbonyl]-indol-1-yl}-1-(4-methyl-piperazin-1-yl)-ethanone], the Ki turned out to be 9 nM.

On to `COc1ccccc1C1CCN(C(=O)c2cn(CC(=O)OC(C)(C)C)c3cc(Cl)ccc23)CC1` [Example 59, {6-Chloro-3-[4-(2-methoxy-phenyl)-piperidine-1-carbonyl]-indol-1-yl}-acetic acid tert-butyl ester], for which the Ki worked out at 2 nM.

`COc1cccc(OC)c1C1CCN(C(=O)c2cn(CC(=O)N(C)C)c3ccccc23)CC1` [Example 62, 2-{3-[4-(2,6-Dimethoxy-phenyl)-piperidine-1-carbonyl]-indol-1-yl}-N,N-dimethyl-acetamide]: the inhibitory constant (Ki) is 11 nM.

For the compound `COc1cccc(OC)c1C1CCN(C(=O)c2cn(Cc3ccnc(C)c3)c3cc(Cl)ccc23)CC1` [Example 63, [6-Chloro-1-(2-methyl-pyridin-4-ylmethyl)-1H-indol-3-yl]-[4-(2,6-dimethoxy-phenyl)-piperidin-1-yl]-methanone], the Ki was 2 nM.

As for `CC(C)Oc1ccccc1C1CCN(C(=O)c2cn(CC(=O)N(C)C)c3cc(Cl)ccc23)CC1` [Example 66, 2-{6-Chloro-3-[4-(2-isopropoxy-phenyl)-piperidine-1-carbonyl]-indol-1-yl}-N,N-dimethyl-acetamide], the Ki was determined as 4 nM.

Consider `CC(C)Oc1ccccc1C1CCN(C(=O)c2cn(CC(=O)N3CCN(C)CC3)c3cc(Cl)ccc23)CC1` [Example 67, 2-{6-Chloro-3-[4-(2-isopropoxy-phenyl)-piperidine-1-carbonyl]-indol-1-yl}-1-(4-methyl-piperazin-1-yl)-ethanone], for which the Ki was determined as 5 nM.

Turning to `COc1cccc(OC)c1C1CCN(C(=O)c2cn(CC(=O)N3CCNCC3)c3cc(Cl)ccc23)CC1` [Example 69, 2-{6-Chloro-3-[4-(2,6-dimethoxy-phenyl)-piperidine-1-carbonyl]-indol-1-yl}-1-piperazin-1-yl-ethanone], the Ki was 6 nM.

Consider `CN(C)C(=O)Cn1cc(C(=O)N2CCC(c3cccc4c3OCC4)CC2)c2ccc(Cl)cc21` [Example 72, 2-{6-Chloro-3-[4-(2,3-dihydro-benzofuran-7-yl)-piperidine-1-carbonyl]-indol-1-yl}-N,N-dimethyl-acetamide], for which the Ki came to 3 nM.

Consider `CNC(=O)Cn1cc(C(=O)N2CCC(c3cccc4c3OCC4)CC2)c2ccc(Cl)cc21` [Example 76, 2-{6-Chloro-3-[4-(2,3-dihydro-benzofuran-7-yl)-piperidine-1-carbonyl]-indol-1-yl}-N-methyl-acetamide], for which the inhibition constant (Ki) was 8 nM.

With `COc1ccccc1C1CCN(C(=O)c2cn(CC(=O)N(C)C)c3cc(Cl)c(Cl)cc23)CC1` [Example 80, 2-{5,6-Dichloro-3-[4-(2-methoxy-phenyl)-piperidine-1-carbonyl]-indol-1-yl}-N,N-dimethyl-acetamide], the Ki stood at 6 nM.

Regarding `CNC(=O)Cn1cc(C(=O)N2CCC(c3c(OC)cccc3OC)CC2)c2ccc(Cl)cc21` [Example 82, 2-{6-Chloro-3-[4-(2,6-dimethoxy-phenyl)-piperidine-1-carbonyl]-indol-1-yl}-N-methyl-acetamide], the Ki came out at 2 nM.

As for `COc1cccc(OC)c1C1CCN(C(=O)c2cn(CC(=O)NCCN)c3cc(Cl)ccc23)CC1` [Example 84, N-(2-Amino-ethyl)-2-{6-chloro-3-[4-(2,6-dimethoxy-phenyl)-piperidine-1-carbonyl]-indol-1-yl}-acetamide], the Ki was found to be 11 nM.
